Experimental data from patent US8076334B2, “Prodrugs of thyroid hormone analogs” (Hoffmann-La Roche Inc., priority 2007, dated 2011).

What was measured:
[1] = Permeability from Caco-2 cells (transport assay); format: in vitro ADME; details: human; Caco-2 monolayers, transport medium pH 7.4, samples at 60 and 120 min
Procedure: (§1) Caco-2 cells were grown in Minimum Essential Medium (MEM), containing 10% fetal bovine serum, 1% non-essential amino acids, 100 units/ml penicillin and 100 μg/ml streptomycin. They were incubated at 37° C. in a humidified atmosphere of 5% CO2. Culture medium was changed every other day. Caco-2 cells were passed once per week by trypsinization.
(§2) Caco-2 cells were seeded at a density of 4.55×10^5 cells/cm^2. Caco-2 cells were incubated for 7 days at 37° C. Medium was changed every two or three days for Caco-2 cells. Prior to the experiment, cells were equilibrated with transport medium [HBSS (pH 7.4) containing 10 mM HEPES] at 37° C. for 30 min. The transepithelial electrical resistance (TEER) of cell monolayers was measured using “chopstick” electrodes (World Precision Instruments, Sarasota, Fla.). Caco-2 cell monolayers with TEER values>500 were used for the assays.
(§3) Samples were prepared in transport medium containing 1% DMSO. Test compounds were applied to the donor chamber at 10 μM. Plates were incubated at 37 °C while shaking at 90 rpm. Samples were taken at 60 and 120 min from the receiver chamber. TEER values were measured at 5 minutes before the final sampling time point. Samples were mixed with 2 volumes of acetonitrile and centrifuged at 3,500 rpm at 4° C. for 10 min. The supernatant was diluted with 1 volume of water containing 1% acetic acid. Samples were analyzed by LC/MS. Standard serial dilutions were prepared manually at 10, 50, 250, 1,250 and 2,500 nM.
(§4) The apparent permeability (Papp) was calculated with the following equation:
(§5) [formula] where C is the receiver chamber drug concentration, t is time in second, V is the volume of the receiver chamber, Co is the initial drug concentration in the donor chamber and A is the surface area of the filter.

[2] = system: Caco-2 cells; assay: Permeability from Caco-2 cells (transport assay); format: in vitro ADME; details: Caco-2; calculated from pro-drug only, does not include converted drug; in % (unit assumed)
Procedure: as §1, §2, §3, §4, §5

[3] = Single dose PO PK in dogs; format: in vivo; details: dog, 10 mg/kg PO
Procedure: A single dose (10 mg/kg) PO (intubation) PK in dogs (3 animals) was performed with the compound of Example 5 using a 2% Klucel, 0.1% Tween 80 in water formulation.
Aliquots (0.05 mL) of dog plasma were mixed with 0.050 mL of pH 7.4 phosphate buffered saline and a 0.010 mL aliquot of a stable labeled internal standard working solution. Each of the samples was then extracted with 0.500 mL of ethyl acetate. A 0.350 mL aliquot of each of the sample extract supernatant was transferred to an injection block and evaporated to dryness using the turbovap evaporator. The sample was then reconstituted with 0.200 mL of a 1:1 mixture of water:acetonitrile containing 0.1% acetic acid. A 0.020 mL sample from each well was injected onto the LC/MS/MS system.
The compound of Example 5was dosed orally to dogs at 10 mg/kg. Both the prodrug and parent, compound Ia, were monitored. […] However, the variability in the oral exposure was reduced when dosed with the compound of Example 5 as compared when dosed with parent.

[4] = Single dose PO PK in rats; format: in vivo; details: rat, 10 mg/kg PO
Procedure: A single dose (10 mg/kg) PO (intubation) PK in rats (3 animals) was performed with the compound of Example 5 using a 2% Klucel, 0.1% Tween 80 in water formulation.
Aliquots (0.05 mL) of rat plasma were protein precipitated with acetonitrile. The extracts were diluted with an equal volume of water and injected onto the LC/MS/MS system.
Both the prodrug and parent, compound Ia, were monitored. […] Variability in exposure of the parent after dosing with the prodrug was improved over that obtained after dosing with parent.

[5] = molecular target: T1, THR-beta/RXR/GRIP (Homo sapiens, UniProt P10828); assay: THR-beta/RXR/GRIP coactivator peptide recruitment assay (HTRF); format: biochemical; details: H6-TRβ ligand binding domain, EE-RxRα, biotin-GRIP peptide
T1 construct: made in house; host or cells: E. coli BL21 (DE3) for H6-TRβ; E. coli for EE-RxRα
T1 sequence (P10828 202-461 limits assumed): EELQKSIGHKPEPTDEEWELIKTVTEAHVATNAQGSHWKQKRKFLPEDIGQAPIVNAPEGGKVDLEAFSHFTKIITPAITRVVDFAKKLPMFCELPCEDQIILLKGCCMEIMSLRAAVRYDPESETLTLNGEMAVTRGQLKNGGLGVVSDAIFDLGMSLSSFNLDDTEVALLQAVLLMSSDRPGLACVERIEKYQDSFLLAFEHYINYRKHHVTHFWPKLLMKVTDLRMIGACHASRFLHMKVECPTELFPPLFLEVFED
T1 sequence (P19793 225-462 partner limits assumed): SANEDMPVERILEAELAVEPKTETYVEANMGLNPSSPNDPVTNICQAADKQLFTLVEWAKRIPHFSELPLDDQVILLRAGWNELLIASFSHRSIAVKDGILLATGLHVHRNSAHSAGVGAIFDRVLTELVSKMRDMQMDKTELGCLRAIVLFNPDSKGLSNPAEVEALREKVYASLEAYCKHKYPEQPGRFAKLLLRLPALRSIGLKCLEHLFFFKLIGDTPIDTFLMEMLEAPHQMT
T1 sequence (Q15596 679-703 partner limits assumed): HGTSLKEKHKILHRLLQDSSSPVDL
Procedure: In this Example, a TR/RXR/GRIP assay was used to test representative compounds of formula (I).
Lysozyme (1.0 mg/ml, Sigma) and Complete Protease Inhibitor Cocktail (Roche Diagnostics Gmbh) were added to slurry and solution sonicated for one min five times at 4° C.
The resulting His6-EE-tagged protein was produced in E. coli cells. Cells were grown using shake flasks with an 18 hour induction in 0.1 mM IPTG at 18° C., harvested and suspended with five volumes of Buffer B (0.025M Tris, 0.3M NaCl, 0.02 M imidazole, 0.01M β-mercaptoethanol, pH 8.0). Lysozyme (0.2 mg/ml, Sigma) and Complete Protease Inhibitor Cocktail (Roche Diagnostics Gmbh) were added and stirred for 30 min. at 4° C. The suspension was sonicated for 30 seconds, five times, at 4° C. The suspension was centrifuged for 20 min. at 12,000 RCF. The supernatant was filtered by 0.45 μm pore size membrane and 0.5% NP-40 was added. […] The protein was concentrated and dialyzed.
The His6 tag was removed from EE-RxRα by thrombin digestion, using 10 units thrombin (Pharmacia, Piscataway, N.J.) per mg protein and incubating for 2 hours at 25° C. […]
Six microliters of T3 (0-14.8 uM) or test compound (0-1.2 mM) in DMSO was then added and the solution incubated at 37° C. for 30 min. […] The HTRF signal was read on the Victor 5 reader (PerkinElmer Life and Analytical Sciences).

[6] = plasma level of parent compound Ia

CC(=O)OCn1nc(Oc2c(Cl)cc(-n3nc(C#N)c(=O)[nH]c3=O)cc2Cl)cc(C(C)C)c1=O [Example 2, Acetic acid 3-[2,6-dichloro-4-(6-cyano-3,5-dioxo-4,5-dihydro-3H-[1,2,4]triazin-2-yl)-phenoxy]-5-isopropyl-6-oxo-6H-pyridazin-1-ylmethyl ester]
Papp at 120 min, 10 μM [1]: 4.58 ± 0.74 ×10⁻⁶ cm/s | Mass Balance [2]: 71.0

CC(C)c1cc(Oc2c(Cl)cc(-n3nc(C#N)c(=O)[nH]c3=O)cc2Cl)nn(COC(=O)N2CCOCC2)c1=O [Example 6, Morpholine-4-carboxylic acid 3-[2,6-dichloro-4-(6-cyano-3,5-dioxo-4,5-dihydro-3H-[1,2,4]triazin-2-yl)-phenoxy]-5-isopropyl-6-oxo-6H-pyridazin-1-ylmethyl ester]
Papp at 120 min, 10 μM [1]: 1.24 ± 0.24 ×10⁻⁶ cm/s | Mass Balance [2]: 101.5

CC(C)c1cc(Oc2c(Cl)cc(-n3nc(C#N)c(=O)[nH]c3=O)cc2Cl)nn(COC(=O)CCC(=O)O)c1=O [Example 13, Succinic acid mono-{3-[2,6-dichloro-4-(6-cyano-3,5-dioxo-4,5-dihydro-3H-[1,2,4]triazin-2-yl)-phenoxy]-5-isopropyl-6-oxo-6H-pyridazin-1-ylmethyl}ester]
Papp at 120 min, 10 μM [1]: 0.23 ± 0.06 ×10⁻⁶ cm/s | Mass Balance [2]: 84.4

CC(C)c1cc(Oc2c(Cl)cc(-n3nc(C#N)c(=O)[nH]c3=O)cc2Cl)n[nH]c1=O [Ia, 2-[3,5-Dichloro-4-(5-isopropyl-6-oxo-1,6-dihydro-pyridazin-3-yloxy)-phenyl]-3,5-dioxo-2,3,4,5-tetrahydro-[1,2,4]triazine-6-carbonitrile, reference compound]
AUC [3, 6]: 2,936 ng * Hours/mL | Tmax [3, 6]: 3 h | AUC Extrap [4, 6]: 28,663 ng * Hours/mL | Tmax [4, 6]: 5 h

CC(C)C(=O)OCn1nc(Oc2c(Cl)cc(-n3nc(C#N)c(=O)[nH]c3=O)cc2Cl)cc(C(C)C)c1=O [Example 5, Isobutyric acid 3-[2,6-Dichloro-4-(6-cyano-3,5-dioxo-4,5-dihydro-3H-[1,2,4]triazin-2-yl)-phenoxy]-5-isopropyl-6-oxo-6H-pyridazin-1-ylmethyl ester]
Bioavailability of parent after dosing with the prodrug versus dosing with parent [3]: comparable | Variability in the oral exposure versus dosing with parent [3]: reduced | Species detected in plasma after oral dosing of the prodrug ([3]; prodrug and parent monitored): only the parent was detected | Absorption of the prodrug compared with the parent [4]: faster than the parent | Variability in exposure of the parent after dosing with the prodrug versus dosing with parent [4]: improved | Species detected in plasma after oral dosing of the prodrug ([4]; prodrug and parent monitored): only the parent was detected | Papp at 120 min, 10 μM [1]: 8.87 ± 0.63 ×10⁻⁶ cm/s | Mass Balance [2]: 47.9 | EC50 [5]: > 57.6 µM

CC(C)c1cc(Oc2c(Cl)cc(-n3nc(C#N)c(=O)[nH]c3=O)cc2Cl)nn(COC(=O)c2cnccn2)c1=O [Example 8, Pyrazine-2-carboxylic acid 3-[2,6-dichloro-4-(6-cyano-3,5-dioxo-4,5-dihydro-3H-[1,2,4]triazin-2-yl)-phenoxy]-5-isopropyl-6-oxo-6H-pyridazin-1-ylmethyl ester]
Papp at 120 min, 10 μM [1]: 0.92 ± 0.11 ×10⁻⁶ cm/s | Mass Balance [2]: 92.8

CC(C)c1cc(Oc2c(Cl)cc(-n3nc(C#N)c(=O)[nH]c3=O)cc2Cl)nn(COC(=O)CN2CCOCC2)c1=O [Example 12, Morpholin-4-yl-acetic acid 3-[2,6-dichloro-4-(6-cyano-3,5-dioxo-4,5-dihydro-3H-[1,2,4]triazin-2-yl)-phenoxy]-5-isopropyl-6-oxo-6H-pyridazin-1-ylmethyl ester]
Papp at 120 min, 10 μM [1]: 1.75 ± 0.65 ×10⁻⁶ cm/s | Mass Balance [2]: 95.0
